Assay results: PMC11189555, “Aryl amino acetamides prevent Plasmodium falciparum ring development via targeting the lipid-transfer protein PfSTART1” (Nature Communications, 2024)
“And” between values parts separate entries of the source, which are not always exact repeats. Identical values can stand only once. Like-named read-outs stand apart in the source and are kept apart here.

How the values were obtained:
[1] = test system: CR-WT parasites; assay: Growth inhibition assay (72 h, LDH activity); type: cell-based, Plasmodium falciparum; details: for EC50: n = 3
Method: Parasite growth assays with inhibitory compounds were performed as per[11] and are fully described in the Supplementary Information.
Molecular biology and transfection of P. falciparum: CRISPR method.
The full 5’ homology region of pfstart1 (either WT, N309K or N330K) was amplified from pPfSTART1-HA-2A-Neo-glmS with the same 5’ BglII primer and a new 3’ primer that replaced with PstI with SpeI and introduced a stop codon. The PCR product was then digested with BglII and SpeI and inserted into similarly digested p1.2 parasite vector2. The p1.2 vector had previously been inserted with a homology region amplified from the 3’ end of the pfstart1 gene (3’HB) to form a second homology block for double recombination. The primers used to amplify 3’HB are listed primers listed in […]
60 μg of p1.2-PfSTART1(WT/N309K/N330K) plasmid was linearised with KasI, precipitated in 3 M sodium acetate and ethanol (70% final concentration) overnight at -20°C. The DNA pellet was washed in cold 70% ethanol and resuspended in cytomix 3.
50 μ M of crRNA ( Table S 2) and 50 μM of tracRNA (Integrated DNA Technologies) were allowed to form a duplex (5 min at 95°C), and Cas9 enzyme (Integrated DNA Technologies) was added, and incubated for 20 min at room temperature 4. This crRNA -tracRNA -Cas9 mix was added to each DNA preparation and transfected to 3D7 ring parasites using the Bio -Rad Gene Pulser at 310 V and 950 μF.
Parasites containing the transfected DNA were selected using 2.5 nM WR99210 (Jacobus). Parasites lines were cloned using limiting dilution. Correct integration was tested by PCR (using primer START_5’UTR.F and START_Int.R1 , Table S 2), and sequencing was done using the primers START_3F and START_Int.R2 (Table S 2).
Growth inhibition assays. Synchronised ring-stage parasites (0.3-0.6% parasitemia, 2% haematocrit) were grown for 72 h in a serial-dilution of the compound under […]
and compound 4. Note that M-833 was first purchased from MolPort (MolPort -002-267-916) then made in-house at WEHI: the differences observed in EC50s across experiments are attributed to the different batches of M -833. For some experiments, 0, 0.25 or 2.5 mM of glucosamine (GlcN) was also added. Experiments were set up in technical duplicates or triplicates. Following a freeze -thaw cycle, lactate dehydrogenase (LDH) activity was assessed as an indicator of parasite growt h 5. 30 μL of parasite culture was incubated for 30 min in the dark with 75 μL Malstat mixture (0.1 M Tris pH 9.0, 20 g/L lactic acid, pH 7.5, 0.2% Triton-X100, 0.5 g/L acetylpyridine adenine dinucleotide (APAD, Sigma), 200 μg/mL nitroblue tetrazolium (NBT; Sigma), 1 μg/mL phenozine ethosulfate (PES; Sigma)). Absorbance was then measured at 650 nm, transformed using the formula below, plotted against the logarithm of the concentrations, and a non-linear regression (log(inhibitor) vs. response, variable slope) was calculated using GraphPad Prism to assess the half-inhibitory […]
Growth inhibition % = (1 − average(sample)− average(uRBC)) ∗ 100 […]
The DMSO samples were also used to assess growth of parasite in the presence of 0.25 and 2.5 mM GlcN (normalised by DMSO in 0 mM GlcN). […]

[2] = test system: female gametes from mature stage V gametocytes; assay: Dual gamete formation assay: female gamete formation (Pfs25 expression); type: cell-based, Plasmodium falciparum
Method: The compounds were tested in the P. falciparum Dual Gamete Formation Assay (PfDGFA)[84], fully described in the Supplementary Information. […]
Dual gamete formation assays. The compounds were tested in the P. falciparum Dual Gamete Formation Assay (PfDGFA) 13. Briefly, mature stage V gametocytes were exposed to compounds for 48 h at 37°C in 384 well plates in gametocyte culture medium (RPMI 1640 supplemented with 25 mM HEPES, 50 μg/mL hypoxanthine, 4.8 g/L NaHCO3, 2 mM L-glutamine, 5% pooled type AB serum, 0.5% Albumax II (Gibco)) under a 1% O2, 3% CO2, 96% N2 environment. Gametogenesis was then triggered by the addition of 10 μL ookinete medium (gametocyte culture medium supplemented with 100 μM xanthurenic acid and 0.27 µg/mL Cy3-labelled anti-Pfs25 antibody) to each well at room temperature. Plates were then cooled on a metal block at 4°C for four min to ensure even cooling and then stabilised for a further 4 min at 28°C. At 20 min post-induction, male gametogenesis was recorded in each well by automated brightfield microscopy using a x4 objective lens and 1.5x magnifier (x6 effective magnification). Afterward, plates were incubated in the dark at room temperature for 24 h and then female gametogenesis recorded in each well by automated fluorescence microscopy (anti-Pfs25-positive cells). All experiments were performed in quadruplicate with DMSO and cabamiquine (DDD107498)17 as negative and positive controls respectively. All data was evaluated in comparison to the positive and negative controls to calculate percentage inhibition of male and female gametocytes, and dose response analysis and IC50 calculation performed using GraphPad Prism. […]

**Q.** What does the source list for `Cc1cc(Cl)c(S(=O)(=O)N2CCCC2)cc1OCC(=O)NC1CCCCC1` [M-833]?
**A.** Growth inhibition assay, NORMALISED ([1]; CR-WT, 0 mM GlcN, conc 41.1523 nM): 25.7439 and 21.0208; Growth inhibition assay, NORMALISED ([1]; CR-WT, 0 mM GlcN, conc 123.457 nM): 61.3173 and 56.525; Growth inhibition assay, NORMALISED ([1]; CR-WT, 0 mM GlcN, conc 370.37 nM): 82.8843; Growth inhibition assay, NORMALISED ([1]; CR-WT, 0 mM GlcN, conc 1111.11 nM): 89.7059; Growth inhibition assay, NORMALISED ([1]; CR-WT, 0 mM GlcN, conc 3333.33 nM): 91.3866; Growth inhibition assay, NORMALISED ([1]; CR-WT, 0 mM GlcN, conc 10000 nM): 91.9797; NORMALISED (growth inhibition, LDH absorbance vs DMSO and uRBC) ([1]; CR-WT, 0.25 mM GlcN, M833 dilution point 1 of 10 (starting concentration 10 uM)): 91.6378 and 97.2065 and 92.208; NORMALISED (growth inhibition, LDH absorbance vs DMSO and uRBC) ([1]; CR-WT, 0.25 mM GlcN, M833 dilution point 2 of 10 from 10 uM start): 88.8272 and 91.5474 and 95.4251; NORMALISED (growth inhibition, LDH absorbance vs DMSO and uRBC) ([1]; CR-WT, 0.25 mM GlcN, M833 dilution point 3 of 10 from 10 uM start): 89.2783 and 89.1988 and 95.5364; NORMALISED (growth inhibition, LDH absorbance vs DMSO and uRBC) ([1]; CR-WT, 0.25 mM GlcN, M833 dilution point 4 of 10 from 10 uM start): 88.272 and 87.9755 and 93.8563; NORMALISED (growth inhibition, LDH absorbance vs DMSO and uRBC) ([1]; CR-WT, 0.25 mM GlcN, M833 dilution point 5 of 10 from 10 uM start): 75.3643 and 67.6575 and 81.1437; NORMALISED (growth inhibition, LDH absorbance vs DMSO and uRBC) ([1]; CR-WT, 0.25 mM GlcN, M833 dilution point 6 of 10 from 10 uM start): 45.0382 and 30.6544 and 52.9049; NORMALISED (growth inhibition, LDH absorbance vs DMSO and uRBC) ([1]; CR-WT, 2.5 mM GlcN, M833 dilution point 1 of 10 (starting concentration 10 uM)): 89.8305 and 92.5684 and 90.1213; NORMALISED (growth inhibition, LDH absorbance vs DMSO and uRBC) ([1]; CR-WT, 2.5 mM GlcN, M833 dilution point 2 of 10 from 10 uM start): 86.1896 and 88.6745 and 91.3765; NORMALISED (growth inhibition, LDH absorbance vs DMSO and uRBC) ([1]; CR-WT, 2.5 mM GlcN, M833 dilution point 3 of 10 from 10 uM start): 89.5794 and 86.621 and 91.7037; NORMALISED (growth inhibition, LDH absorbance vs DMSO and uRBC) ([1]; CR-WT, 2.5 mM GlcN, M833 dilution point 4 of 10 from 10 uM start): 86.2524 and 82.3118 and 91.2012; NORMALISED (growth inhibition, LDH absorbance vs DMSO and uRBC) ([1]; CR-WT, 2.5 mM GlcN, M833 dilution point 5 of 10 from 10 uM start): 84.1808 and 81.8139 and 88.9226; NORMALISED (growth inhibition, LDH absorbance vs DMSO and uRBC) ([1]; CR-WT, 2.5 mM GlcN, M833 dilution point 6 of 10 from 10 uM start): 79.5355 and 74.3155 and 81.4326; NORMALISED (growth inhibition, LDH absorbance vs DMSO and uRBC) ([1]; CR-WT, 2.5 mM GlcN, M833 dilution point 7 of 10 from 10 uM start): 64.0929 and 56.4406 and 58.0509; NORMALISED (growth inhibition, LDH absorbance vs DMSO and uRBC) ([1]; CR-WT, 2.5 mM GlcN, M833 dilution point 8 of 10 from 10 uM start): 44.6955 and 44.5084 and 37.5789; NORMALISED (growth inhibition, LDH absorbance vs DMSO and uRBC) ([1]; CR-WT, 2.5 mM GlcN, M833 dilution point 9 of 10 from 10 uM start): 25.0175 and 29.9435 and 28.2047; NORMALISED (growth inhibition, LDH absorbance vs DMSO and uRBC) ([1]; CR-WT, 2.5 mM GlcN, M833 dilution point 10 of 10 from 10 uM start): 14.8750 and 11.4878 and 17.8749; EC50 ([1]; Plasmodium falciparum, 72 h, Fig 2D, CR-WT, 72 h, read-out: EC50 (95% confidence interval)): 51.2 nM; inhibition at 0.37037 µM ([1]; Plasmodium falciparum, CR-WT, 0 mM GlcN, conc 370.37 nM, read-out: Growth inhibition assay, NORMALISED): 88.3%; inhibition at 1.11111 µM ([1]; Plasmodium falciparum, CR-WT, 0 mM GlcN, conc 1111.11 nM, read-out: Growth inhibition assay, NORMALISED): 91.9%; inhibition at 3.33333 µM ([1]; Plasmodium falciparum, CR-WT, 0 mM GlcN, conc 3333.33 nM, read-out: Growth inhibition assay, NORMALISED): 91.6%; inhibition at 10 µM ([1]; Plasmodium falciparum, CR-WT, 0 mM GlcN, conc 10000 nM, read-out: Growth inhibition assay, NORMALISED): 93.5%; EC50 ([1]; Plasmodium falciparum, read-out: EC50 M-833 (95% confidence interval), Fig 3F, CR-WT, 0.25 mM GlcN): 39.6 nM; EC50 ([1]; Plasmodium falciparum, read-out: EC50 M-833 (95% confidence interval), Fig 3F, CR-WT, 2.5 mM GlcN): 6.58 nM; fold reduction of EC50 on addition of 2.5 mM GlcN ([1]; {}): 7.8 fold; inhibition of female gamete formation ([2]; 1 µM, 48 h treatment of mature gametocytes): no inhibition; Dual Gamete Formation Assay: Female at 1 µM, Mean ([2]; mean of 4 plates): -1.423
